The values that follow come from publication PMC8583042, “New Hybrid Compounds Combining Fragments of Usnic Acid and Thioether Are Inhibitors of Human Enzymes TDP1, TDP2 and PARP1” (International Journal of Molecular Sciences, 2021).

By CC50 is commonly meant the concentration that lowers cell viability or growth by half.

The nature of data set [1]: Colorimetric cytotoxicity test, HEK293FT. The format is cell-based. The note with it: human, HEK293FT cells, intrinsic cytotoxicity. The source says: (§1) The low intrinsic cytotoxicity of the additional drug component in the clinically used anticancer cocktails with traditional drugs is very important for treatment. This approach in chemotherapy can reduce the potential resulting toxic load on the body in the case of a combined action of these inhibitors on the activity of several targets. […] The effects of the tested compounds on cell survival are shown on Figure 4 and the CC50 values for three cell lines are shown in Table 1. The intrinsic cytotoxicity of a number of the studied compounds is quite high, namely, they have close IC50 values against the TDP1 and CC50 values on one or several studied cell lines. Most of the compounds generally were more toxic for the HEK293FT and HeLa cell lines than for the HEK293A cell line (Table 1 and Figure 4). The cytotoxicity of the three leader compounds, 7g, 10a, and 7h, was quite high. […] Compound 10b was one of the least toxic among the ten tested compounds.
(§2) Cytotoxicity of the compounds was examined against human cell lines HEK293A (human embryonic kidney)—WT, TDP1 deficient (Tdp1-/-), PARP1 deficient (PARP1-/-), and HeLa (cervical cancer) using an EZ4U colorimetric test (Biomedica, Vienna, Austria). The HEK293A cell line was obtained from Thermo Fisher Scientific (Waltham, MA, USA), and the HeLa cell line was obtained from the Russian Cell Culture Collection (RCCC) Institute of Cytology RAS, St. Petersburg, Russia. The cells were grown in DMEM/F12 medium (Gibco, Thermo Fisher Scientific, Waltham, MA, USA), with 1x GlutaMAX (Gibco, Thermo Fisher Scientific, Waltham, MA, USA), 50 IU/mL penicillin, 50 μg/mL streptomycin (MP Biomedicals), and in the presence of 10% fetal bovine serum (Biolot, Saint-Petersburg, Russia) in a 5% CO2 atmosphere. Cells were grown in the presence of 1% DMSO in the control wells. After the formation of a 30–50% monolayer, the tested compounds were added to the medium, and the cell culture was monitored for 3 days. The values were normalized to their own control in each case. At least three independent experiments were carried out. The 50% cytotoxic concentration (CC50) was defined as the compound concentration that reduced the cell viability by 50% when compared to the untreated controls. The compound concentration that caused 50% cell growth inhibition was determined using OriginPro 8.6.0 software (OriginLab, Northampton, MA, USA). The measurements were carried out in three independent experiments.

Another data set deals with HeLa cells. Description: Cytotoxicity of the combination of 10a and topotecan on HeLa cells. The format is cell-based, human.
Description: TDP1 is able to cleave the TOP1–DNA complex, thus preventing the action of Tpc and decreasing the efficiency of this clinically used drug. The inhibition of TDP1 activity can increase the efficiency of Tpc. Next, we checked the cytotoxic effect of the combination of Tpc and examined the TDP1 inhibitors compared to Tpc alone on HeLa cells and HEK293 cells.
We observed the suppressed cell growth in the joint presence of the TDP1 inhibitor and Tpc on HeLa cells compared to Tpc alone (Figure 5). We observed the synergistic effect both when we titrated 10a with addition of fixed Tpc (1 μM or 2 μM) and vice versa when we titrated Tpc with addition of fixed 10a (5 μM). […] The CC50 value of Tpc decreased from 2 μM (only Tpc) to 0.7 μM (Tpc with 5 μM 10a).
as §2, with “The 50% cytotoxic concentration (CC50) was defined as the compound concentration that reduced the cell viability by 50% when compared to the untreated controls.” left out, “The measurements were carried out in three independent experiments.” left out

Data set [2] deals with HEK293 wild type and TDP1-/- and PARP1-/- cell lines. The data set can be described thus: Joint action of 10a and Tpc on HEK293 wild type, TDP1-/- and PARP1-/- cells. Type of data set: cell-based, human. The note with it: data not shown. An excerpt: (§3) In our previous works, we checked the cytotoxic effect of Tpc and the TDP1 inhibitors—monoterpene 3-carene-derived compounds [48, 49] and UA combined with monoterpenoids, measured separately and jointly with Tpc—using a panel of HEK293FT and HEK293A Tdp1 knockout isogenic clones. […] The data on the HEK293FT mutants were of low reproducibility, which is why we decided to change the basic cell line to HEK293A [49]. In this work, we created new PARP1-/- HEK293A cells using the CRISPR–Cas9 approach (Figure S27). […] We checked the intrinsic cytotoxicity of the leader compound (10a) on the HEK293 wild type and TDP1-/- and PARP1-/- cell lines using a colorimetric test (Figure 6). […] There was no difference between the WT and mutant cells.
(§4) Cytotoxicity of the compounds was examined against human cell lines HEK293A (human embryonic kidney)—WT, TDP1 deficient (Tdp1-/-), PARP1 deficient (PARP1-/-), and HeLa (cervical cancer) using an EZ4U colorimetric test (Biomedica, Vienna, Austria). […] After the formation of a 30–50% monolayer, the tested compounds were added to the medium, and the cell culture was monitored for 3 days. […] The compound concentration that caused 50% cell growth inhibition was determined using OriginPro 8.6.0 software (OriginLab, Northampton, MA, USA). […]

A short description of data set [3]: Colorimetric cytotoxicity test, HEK293A PARP1-/-. To be noted: human, PARP1-/- HEK293A cells; PARP1-/- cell line, intrinsic cytotoxicity (Figure 6); read-out: CC50. The format is cell-based.
Description: as §3, §4

The nature of data set [4]: EZ4U colorimetric cytotoxicity test, HEK293A. Type of data set: cell-based. The note with it: human.
Description: as §1, §2

Turning to `CC(=O)C1=C(O)C=C2Oc3c(C(=O)C[S+]([O-])c4nc5ccccc5s4)c(O)c(C)c(O)c3[C@@]2(C)C1=O` (stereo partly drawn) [10a, (2R)-4-acetyl-10-[2-(1,3-benzothiazole-2-sulfinyl)acetyl]-5,11,13-trihydroxy-2,12-dimethyl-8-oxatricyclo[7.4.0.0^2,7]trideca-1(13),4,6,9,11-pentaen-3-one], the CC50 at 3 days was 15 ± 2 µM in data set [1]; 15 to 20 µM in data set [3]; 20 ± 2 µM in data set [4] (HEK293A cells, intrinsic cytotoxicity, 3 days, read-out: HEK293A CC50); 15 to 20 µM in data set [4] (wild-type HEK293A cells, HEK293 wild type, intrinsic cytotoxicity (Figure 6), read-out: CC50). Moreover, the “Synergy with Tpc (in words)” value with HeLa cells (HeLa cells) is given as “promising synergy”. In addition, the CC50 in the data set with HeLa cells (Homo sapiens, HeLa, 10a titrated with fixed 2 μM Tpc, read-out: CC50 of 10a with Tpc) was 3 µM. Besides, the “Effect of the joint presence of 10a and Tpc (in words)” value in data set [2] is “did not observe any effect”.
